# Measured values taken from patent US8426447B2, “Spiro-tricyclic ring compounds as beta-secretase modulators and methods of use” (Amgen Inc., priority 2008, dated 2013).
# pIC50: −log10 of the molar value.
# Legend:
# BACE1 [1] = biological target: T1, BACE1 (Homo sapiens, UniProt P56817); assay: In Vitro Enzymatic BACE FRET (Fluorescence Resonance Energy Transfer) Assay; assay type: biochemical; settings: read-out: BACE1 FRET assay; for IC50: Table III, IC50's in uM ranges
# Procedure, shortened: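 Run in 0.05 M acetate pH 4.2 with 10% DMSO final and 100 uM genapol detergent below its CMC. Reaction was started with 50 nM FRET peptide substrate (fluorophore and quencher flanking the BACE cleavage site), incubated one hour, stopped with Tris to neutral pH, and fluorescence read.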
# BACE1 [2] = biological target: T1, BACE1; assay: In Vitro BACE Cell-based Assay (HEK cell assay): Aβ40 in conditioned medium of cells stably expressing Amyloid Precursor Protein, sandwich ELISA; settings: read-out: HEK cell assay; for IC50: Table III, IC50's in uM ranges
# Procedure, shortened: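 Read-out is time-resolved fluorescence of Aβ40 in supernatant, captured by pAb40 and detected with biotinylated 6E10 plus Streptavidin-Europium. Cells stably expressing APP received compounds for 24 h over 10 concentrations starting at 100 μM or 10 μM, final DMSO 0.1%.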
# [3] = in vitro BACE FRET enzyme assay, IC50 class symbols
# [4] = HEK cell-based assay, Aβ40 in conditioned medium, IC50 class symbols
# T1 sequence (P56817 46-501, species assumed): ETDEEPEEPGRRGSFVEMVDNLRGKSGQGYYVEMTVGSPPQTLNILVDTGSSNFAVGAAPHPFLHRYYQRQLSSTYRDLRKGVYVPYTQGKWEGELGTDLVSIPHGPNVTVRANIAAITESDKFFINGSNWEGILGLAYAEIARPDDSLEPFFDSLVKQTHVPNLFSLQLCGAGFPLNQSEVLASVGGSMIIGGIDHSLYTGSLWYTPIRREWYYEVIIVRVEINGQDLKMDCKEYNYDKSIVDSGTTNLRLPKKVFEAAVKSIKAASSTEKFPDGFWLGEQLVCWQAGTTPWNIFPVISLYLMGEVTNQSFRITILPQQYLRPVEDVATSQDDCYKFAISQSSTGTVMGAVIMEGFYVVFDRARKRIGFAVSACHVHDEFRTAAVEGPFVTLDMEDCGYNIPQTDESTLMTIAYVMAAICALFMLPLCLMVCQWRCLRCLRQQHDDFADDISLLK
smiles,measurement,setting,value
"COc1ccc2c(c1)[C@]1(N=C(N)O[C@@H]1C)c1cc(-c3cncnc3)ccc1O2 (single isomer, unassigned) [Example 125c]",IC50,BACE1 [1],> 5 µM
same,IC50,BACE1 [2],> 5 µM
COCC(=O)Nc1ccc2c(c1)[C@@]1(COC(N)=N1)c1cc(OC)ccc1O2 [compound 613],pIC50,"BACE1 [1]; Table IV, class symbols",6.00 to 7.00
same,pIC50,"BACE1 [2]; Table IV, class symbols",6.00 to 7.00
CC(C)(C)/C=C/c1cc2c(cn1)Oc1ccc(-c3cccnc3)cc1[C@@]21COC(N)=N1 [compound 397],pIC50,BACE1 [1]; [3],> 7.00
same,pIC50,BACE1 [2]; [4],> 7.00
NC1=N[C@@]2(CO1)c1cc(-c3cccnc3)ccc1Oc1ccc(-c3csc(C4CC4)n3)cc12 [compound 632],pIC50,"BACE1 [1]; Table IV, class symbols",> 7.00
same,pIC50,"BACE1 [2]; Table IV, class symbols",6.00 to 7.00
NC1=N[C@@]2(CO1)c1cc(-c3ccccc3F)ccc1Oc1cnc(Cl)cc12 [compound 425],pIC50,BACE1 [1],6.00 to 7.00
same,pIC50,BACE1 [2]; HEK cells,< 5.30
COc1ccc2c(c1)[C@]1(COC(N)=N1)c1cc(-c3cccc4cccnc34)ccc1O2 [compound 590],pIC50,"BACE1 [1]; Table IV, class symbols",5.30 to 6.00
same,pIC50,"BACE1 [2]; Table IV, class symbols",5.30 to 6.00
CC(C)(C)C#Cc1ccc2c(c1)[C@]1(COC(N)=N1)c1cc(C#CC(C)(C)C)ncc1O2 [compound 847],pIC50,"BACE1 [1]; Table IV, class symbols",6.00 to 7.00
same,pIC50,"BACE1 [2]; Table IV, class symbols",5.30 to 6.00
CC(C)(C)C#Cc1ccc2c(c1)C1(COC(N)=N1)c1cc(C#CC(C)(C)C)ccc1O2 [compound 930],pIC50,BACE1 [1],6.00 to 7.00
same,pIC50,BACE1 [2],5.30 to 6.00
"COc1ccc2c(c1)C1(COC(N)=N1)c1cc(-c3cccc(Cl)c3F)ccc1O2 (stereo not shown) [Example 18, 2′-(3-chloro-2-fluorophenyl)-7′-methoxyspiro[1,3-oxazole-4,9′-xanthen]-2-amine]",pIC50,BACE1 [1]; Table 1,5.30 to 6.00
same,pIC50,"BACE1 [2]; Table 1, Aβ40, 24 h incubation",< 5.30
COc1ccc2c(c1)[C@@]1(COC(N)=N1)c1cc(Br)cc(F)c1O2 [compound 378],pIC50,BACE1 [1]; [3],5.30 to 6.00
same,pIC50,BACE1 [2]; [4],< 5.30
CC(C)(C)COc1ccc2c(c1)[C@@]1(COC(N)=N1)c1cc(C(=O)N3CCCC3)ccc1O2 [compound 992],pIC50,BACE1 [1],6.00 to 7.00
same,pIC50,BACE1 [2],5.30 to 6.00
CC(C)(C)COc1ccc2c(c1)[C@]1(COC(N)=N1)c1cc(C#CC3CC3)cnc1O2 [compound 45],pIC50,BACE1 [1]; Table II,> 7.00
same,pIC50,"BACE1 [2]; Table II, Aβ40, 24 h incubation",6.00 to 7.00
COc1ccc2c(c1)[C@]1(COC(N)=N1)c1cc(C#CC(C)(C)C)cnc1O2 [compound 904],pIC50,"BACE1 [1]; Table IV, class symbols",< 5.30
same,pIC50,"BACE1 [2]; Table IV, class symbols",6.00 to 7.00
CC1(COc2ccc3c(c2)[C@@]2(COC(N)=N2)c2cc(C#CC4CC4)cnc2O3)COC1 [compound 967],pIC50,BACE1 [1],> 7.00
same,pIC50,BACE1 [2],6.00 to 7.00
NC1=N[C@@]2(CO1)c1cc(Br)ccc1Oc1ccc(/C=C/C(=O)O)cc12 [compound 919],pIC50,"BACE1 [1]; Table IV, class symbols",5.30 to 6.00
same,pIC50,"BACE1 [2]; Table IV, class symbols",< 5.30
"COc1ccc2c(c1)C1(COC(N)=N1)c1cc(-c3cccc(C)c3)ccc1O2 (stereo not shown) [Example 20, 2′-methoxy-7′-(3-methylphenyl)spiro[1,3-oxazole-4,9′-xanthen]-2-amine]",pIC50,BACE1 [1]; Table 1,5.30 to 6.00
same,pIC50,"BACE1 [2]; Table 1, Aβ40, 24 h incubation",< 5.30
COc1cc2c(cc1F)Oc1ccc(-c3cncnc3)cc1[C@]21COC(N)=N1 [154a],IC50,BACE1 [1],> 5 µM
same,IC50,BACE1 [2],> 5 µM
CC(C)(C)COc1ccc2c(c1)[C@@]1(COC(N)=N1)c1cc(-c3cccnc3F)cnc1O2 [compound 952],pIC50,BACE1 [1],> 7.00
same,pIC50,BACE1 [2],> 7.00
CC1(COc2ccc3c(c2)[C@]2(COC(N)=N2)c2cc(-c4cncnc4)cnc2O3)COC1 [compound 166],IC50,BACE1 [1],< 0.1 µM
same,IC50,BACE1 [2],0.1 to 1 µM
NC1=N[C@]2(CO1)c1cc(C(=O)N3CCCC3)ccc1Oc1ccc(-c3cccnc3)cc12 [compound 945],pIC50,BACE1 [1],6.00 to 7.00
same,pIC50,BACE1 [2],6.00 to 7.00
CNCc1ccc(-c2ccc3c(c2)[C@]2(COC(N)=N2)c2cc(OCC(C)(C)C)ccc2O3)cc1 [compound 784],pIC50,BACE1 [1],6.00 to 7.00
same,pIC50,BACE1 [2],5.30 to 6.00
NC1=N[C@@]2(CO1)c1cc(-c3cccnc3F)ccc1Oc1c(F)cc(N3C[C@@H]4C[C@H]3CO4)cc12 [compound 416],pIC50,BACE1 [1]; [3],> 7.00
same,pIC50,BACE1 [2]; [4],> 7.00
COCC(=O)Nc1ccc2c(c1)[C@@]1(COC(N)=N1)c1cc(C#CC(C)(C)C)ccc1O2 [compound 324],pIC50,BACE1 [1]; [3],> 7.00
same,pIC50,BACE1 [2]; [4],6.00 to 7.00
NC1=NC2(CO1)c1cc(C3=CCOCC3)ccc1Oc1ccc(C3=CCOCC3)cc12 [compound 757],pIC50,BACE1 [1],6.00 to 7.00
same,pIC50,BACE1 [2],6.00 to 7.00
COC(=O)/C=C/c1ccc2c(c1)[C@@]1(COC(N)=N1)c1cc(Br)ccc1O2 [compound 169],IC50,BACE1 [1],1 to 5 µM
same,IC50,BACE1 [2],> 5 µM
COC(=O)c1ccc2c(c1)[C@@]1(COC(N)=N1)c1cc(OCC(C)(C)C)ccc1O2 [compound 875],pIC50,"BACE1 [1]; Table IV, class symbols",> 7.00
same,pIC50,"BACE1 [2]; Table IV, class symbols",6.00 to 7.00
